18 compounds from patent US20240228481A1, “NOVEL SULFONAMIDE SERIES OF QR2 INHIBITORS TO TACKLE OXIDATIVE STRESS AND COGNITIVE DECLINE” (CARMEL HAIFA UNIVERSITY ECONOMIC CORPORATION LTD., priority 2021, published 2024) can be followed below.

Common to all, as to assay type: biochemical
Assay [1] deals with T1, QR1 (NQO1) (Homo sapiens, UniProt P15559).
T1 construct: purchased Sigma-Aldrich
In words: Selectivity assay with QR1 in place of QR2, fluorescence readout. The method, then:
(§1) The enzymatic activity of QR2 (10 nM) was measured using menadione (both Sigma-Aldrich) as substrate and dihydrobenzylnicotamide (BNAH; Tocris) as co-substrate (Boutin et al., 2005). The reaction was performed in 50 mM Tris HCl, 150 mM NaCl 0.01% Tween-20 pH=8.5 (Sigma-Aldrich) at room temperature. Briefly, 3 μL of menadione alone (200 μM) or a mixture of menadione and QR2 (200 μM of menadione and 10 nM of QR2) were dispensed in 1536-well black Nunc plates (Thermo-Fisher) using a Multidrop™ Combi Reagent Dispenser (Thermo-Fisher) and pre-incubated with compounds for 10 min. BNAH (200 μM) was then added (3 μL) to the reaction using a BioNex Solutions BNX 1536 plate washer and the plates were incubated for another 10 min. […] The initial HTS was done with approximately 200,000 compounds at a single concentration of 5 μM. The chemical libraries used were Selleck Chemicals Bioactives, the Drug-like set from Enamine, HitFinder collection from Maybridge, Spectrum Collection from Microsource, Lopac from Sigma-Aldrich and the diversity sets from ChemDiv and ChemBridge. Initial “hit” compounds were defined as causing >30% reduction of enzyme activity. Compounds suspected to be fluorescent were re-assayed in an absorbance assay at 350 nm using the same reaction but in a higher volume (100 μL), in a transparent plate (Greiner Bio-One). “Hit” compounds resulting from both the fluorescence and absorbance assay were tested in a dose-response, and median inhibition concentration (IC50) values were determined. In parallel, the same dose response was used in a selectivity assay where QR2 enzyme was replaced by QR1 (also known as—NQO1, 10 nM; Sigma-Aldrich).
(§2) In order to establish a varied, flexible and chemically amenable starting point from which to develop such inhibitors, the inventors ran a standardized QR2 assay (see methods) against ˜200,000 compounds, from a varied assortment of chemical libraries. […] Compounds that replicated the initial hit result were then assayed similarly, against NQO1, to evaluate compound specificity (FIG. 1B). From the HTS, a series of compounds containing a sulfonamide central linker, with an amine on one side and a heterocycle on the other, were identified and selected for SAR development (FIG. 1C).

In assay [2] the target is T2, QR2 (Homo sapiens, UniProt P16083).
T2 sequence (P16083 1-231): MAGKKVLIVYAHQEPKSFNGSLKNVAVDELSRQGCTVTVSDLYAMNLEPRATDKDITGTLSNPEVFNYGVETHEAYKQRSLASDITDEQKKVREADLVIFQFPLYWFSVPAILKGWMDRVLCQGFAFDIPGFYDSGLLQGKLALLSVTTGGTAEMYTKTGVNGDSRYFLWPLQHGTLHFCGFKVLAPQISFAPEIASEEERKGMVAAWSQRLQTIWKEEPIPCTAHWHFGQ
In words: QR2 enzymatic activity assay (menadione/BNAH), fluorescence readout. Also noted: purchased Sigma-Aldrich. Here is the method: (§3) The enzymatic activity of QR2 (10 nM) was measured using menadione (both Sigma-Aldrich) as substrate and dihydrobenzylnicotamide (BNAH; Tocris) as co-substrate (Boutin et al., 2005). The reaction was performed in 50 mM Tris HCl, 150 mM NaCl 0.01% Tween-20 pH=8.5 (Sigma-Aldrich) at room temperature. Briefly, 3 μL of menadione alone (200 μM) or a mixture of menadione and QR2 (200 μM of menadione and 10 nM of QR2) were dispensed in 1536-well black Nunc plates (Thermo-Fisher) using a Multidrop™ Combi Reagent Dispenser (Thermo-Fisher) and pre-incubated with compounds for 10 min. BNAH (200 μM) was then added (3 μL) to the reaction using a BioNex Solutions BNX 1536 plate washer and the plates were incubated for another 10 min. […] The initial HTS was done with approximately 200,000 compounds at a single concentration of 5 μM. The chemical libraries used were Selleck Chemicals Bioactives, the Drug-like set from Enamine, HitFinder collection from Maybridge, Spectrum Collection from Microsource, Lopac from Sigma-Aldrich and the diversity sets from ChemDiv and ChemBridge. Initial “hit” compounds were defined as causing >30% reduction of enzyme activity. […] “Hit” compounds resulting from both the fluorescence and absorbance assay were tested in a dose-response, and median inhibition concentration (IC50) values were determined. In parallel, the same dose response was used in a selectivity assay where QR2 enzyme was replaced by QR1 (also known as—NQO1, 10 nM; Sigma-Aldrich).
(§4) In order to establish a varied, flexible and chemically amenable starting point from which to develop such inhibitors, the inventors ran a standardized QR2 assay (see methods) against ˜200,000 compounds, from a varied assortment of chemical libraries.

Assay [3] deals with T1, QR1 (NQO1). In words: Selectivity assay with QR1 in place of QR2, absorbance readout. Here is the method:
as §1, §2

The target of assay [4] is T2, QR2. In words: QR2 enzymatic activity assay (menadione/BNAH), absorbance readout at 350 nm. Also noted: purchased Sigma-Aldrich. The method, then: as §3, §4

The term IC50 denotes the point on the concentration scale where inhibition reaches its midpoint. Low readings indicate greater potency, high ones weaker potency.

T1 sequence (P15559 whole entry): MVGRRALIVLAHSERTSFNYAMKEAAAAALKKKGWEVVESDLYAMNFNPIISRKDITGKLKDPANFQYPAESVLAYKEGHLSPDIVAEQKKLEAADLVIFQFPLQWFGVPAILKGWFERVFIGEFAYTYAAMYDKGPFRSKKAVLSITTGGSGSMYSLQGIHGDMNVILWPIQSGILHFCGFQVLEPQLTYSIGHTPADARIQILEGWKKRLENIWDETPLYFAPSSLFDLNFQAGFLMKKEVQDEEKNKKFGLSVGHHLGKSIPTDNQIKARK

On to `CN(C)S(=O)(=O)c1cccc2ccccc12` [PCM-0071569], for which the half-maximal inhibitory concentration (IC50) on QR1 (NQO1) [1] and against QR2 [2] was over 9.8 µM each time.
Consider `COCCNC(=O)N1CCN(S(=O)(=O)c2c(C)c(C)c(C)c(C)c2C)CC1` [PCM-0072788], for which the IC50 against QR1 (NQO1) [1] and against QR2 [2] was over 9.8 µM throughout.
Turning to `Cc1c(C)c(C)c(S(=O)(=O)N2CCNC(=O)C2)c(C)c1C` [PCM-0083647], the IC50 against QR1 (NQO1) [1] is over 9.8 µM; against QR2 [2], 7.04 µM.
With `COc1cc(NS(C)(=O)=O)ccc1Cc1c2ccccc2nc2ccccc12` [PCM-0090313], the IC50 against QR1 (NQO1) [1] and at QR2 [2] was over 9.8 µM each time.
As for `CS(=O)(=O)N(Cc1cccnc1)C1CN(C(=O)c2c[nH]c3ccccc23)C1` [PCM-0105406], the 50% inhibitory concentration (IC50) is over 9.99 µM on QR1 (NQO1) [3], over 9.9 µM against QR1 (NQO1) [1], 8.43 µM at QR2 [4] and over 9.9 µM on QR2 [2].
Regarding `CCCn1cc(C2CCN(S(=O)(=O)c3ccc(C(C)(C)C)cc3)CC2)c2cccnc21` [PCM-0105813], the IC50 on QR1 (NQO1) [3] is over 9.99 µM; against QR1 (NQO1) [1], over 9.9 µM; on QR2 [4], over 9.99 µM; at QR2 [2] it was over 9.9 µM.
Consider `CCCn1cc(C2=CCN(S(=O)(=O)Cc3ccccc3)CC2)c2cccnc21` [PCM-0105851], for which the 50% inhibitory concentration (IC50) against QR1 (NQO1) [3] was over 9.99 µM; against QR1 (NQO1) [1], over 9.9 µM; on QR2 [4], 9.05 µM; at QR2 [2], over 9.9 µM.
`COCC1CN(S(=O)(=O)Cc2ccccc2)CC12CCNCC2` (stereo not drawn) [PCM-0109036]: the IC50 against QR1 (NQO1) [3] was over 9.99 µM; at QR1 (NQO1) [1], over 9.9 µM; against QR2 [4], over 9.99 µM; against QR2 [2], over 9.9 µM.
Take `CC(=O)N1CCOc2ccc(S(=O)(=O)N3CCCc4ccccc43)cc21` [PCM-0119249]: the IC50 was 3.48 µM against QR1 (NQO1) [3], 4.7 µM against QR1 (NQO1) [1], over 9.99 µM against QR2 [4] and over 9.9 µM on QR2 [2].
For `CCOC(=O)c1c(S(=O)(=O)N(CC)c2cccc(C)c2)c(C)n(C)c1C` [PCM-0119438], the concentration for half-maximal inhibition (IC50) at QR1 (NQO1) [3] was over 9.99 µM; against QR1 (NQO1) [1], 5.39 µM; against QR2 [4] it was 8.98 µM; at QR2 [2], 3.59 µM.
Taken in the same sequence, the figures for `CCOC(=O)c1c(S(=O)(=O)N2CCN(Cc3ccccc3)CC2)c(C)n(C)c1C` [PCM-0119478] were over 9.99 µM, over 9.9 µM, over 9.99 µM and over 9.9 µM.
Take `CCOC(=O)c1c(S(=O)(=O)N(CCC(C)C)Cc2ccco2)c(C)n(C)c1C` [PCM-0120203]: the IC50 is over 9.9 µM on QR1 (NQO1) [3], 3.79 µM against QR1 (NQO1) [1], 8.53 µM at QR2 [4] and 8.21 µM at QR2 [2].
`CCOC(=O)c1cc(-c2ccc(OC)c(S(=O)(=O)N3CCCc4ccccc43)c2)on1` [PCM-0120247]: the IC50 was over 9.99 µM on QR1 (NQO1) [3], over 9.9 µM on QR1 (NQO1) [1], over 9.99 µM against QR2 [4] and over 9.9 µM against QR2 [2].
For `CCCS(=O)(=O)Nc1ccc2c(c1)C(=O)Nc1cc(C)ccc1O2` [PCM-0120253], the IC50 on QR1 (NQO1) [3] was over 9.99 µM; against QR1 (NQO1) [1], 4.6 µM; against QR2 [4] it was 8.89 µM; on QR2 [2], over 9.9 µM.
In the same order, the values of `CCCS(=O)(=O)N1CCCc2cc(NC(=O)c3ccco3)ccc21` [PCM-0120563] are over 9.99 µM, over 9.9 µM, over 9.99 µM and over 9.9 µM.
Taken in the same sequence, the figures for `COc1ccc(OC)c(S(=O)(=O)Nc2cccc(-c3cn4c(C)csc4n3)c2)c1` [PCM-0121306] were over 9.99 µM, 8.77 µM, 2.03 µM and 0.83 µM.
`Cc1ccn2cc(-c3cccc(S(=O)(=O)N(C)C)c3)nc2c1` [PCM-0213801]: the IC50 against QR1 (NQO1) [3] and against QR1 (NQO1) [1] was over 9.99 µM each time.
With `Cc1ccc(-c2cn3cccc(C)c3n2)cc1S(=O)(=O)N1CCN(C)CC1` [YB-540], the IC50 is over 9.99 µM against QR1 (NQO1) [1] and 0.425 µM at QR2 [2].
